Key:
[1] = system: DOHH-2-luc tumor cells in the mouse brain; test: DOHH-2-Luc intracerebral tumor drug efficacy model test; format: in vivo; settings: for inhibitory effect against the tumor compared with Tirabrutinib: DOHH2 tumor model in the mouse brain, same dose of 30 mg/kg (BID), FIG. 3; for fluorescence image of brain tumor (red area = tumor size): DOHH-2-Luc intracerebral model, same dose, FIG. 4; for side effects: mouse, 30 mg/kg (BID), after 21 days of administration
Description: Test Example 8: DOHH-2-Luc Intracerebral Tumor Drug Efficacy Model Test
DOHH-2-luc tumor cells were cultured in vitro with RPMI 1640 medium containing 10% fetal bovine serum and 500 ng/mL puromycin in a 37° C., 5% CO2 incubator. […] Tumor cells in logarithmic growth phase were used for inoculation of tumors in vivo.
2. Inoculation of Tumor Cell and Grouping
After the animal was anesthetized by intramuscular injection of Zoletil, it was fixed on the operating table in a prone position. The skin on the top of the head was disinfected with iodine and 75% alcohol respectively, and the skin was cut about 0.5 cm along the midline of the head to expose the coronal and sagittal lines. Being located about 0.5-1.0 mm above the coronal line and about 2 mm to the right of the sagittal line by using a brain locator, a hole was drilled with a 1 mL syringe needle. The micro-injector was inserted vertically to a depth of 3 mm at the location, slowly (about 1 min) injected with 3×10^5 DOHH-2-luc tumor cells/2 μL suspension and kept for 1 min. After pulling out the needle, the needle hole was quickly sealed with bone wax, and the wound was sutured with a stapler. About the 7th day after tumor inoculation, the animals were randomly divided into 5 groups according to the body weight of the animals and the optical signal intensity of the tumor site, with 5 animals in each group.
The mice were imaged 1-2 times a week according to their state using the small animal in vivo imaging system IVIS Lumina III (Perkin Elmer). The bioluminescence imaging (BLI, unit: photons/s) signal intensity at the tumor cell inoculation site of mouse was monitored as the main indicator for evaluating tumor growth and drug efficacy. The specific operation is as follows:
The mice were intraperitoneally injected with D-luciferin (15 mg/mL, 5 μL/g according to the body weight of the experimental animal), and then inhaled anesthetized with 1%-2% isoflurane. 10 min after the injection of D-luciferin, the animals were imaged with IVIS Lumina III. The data were analyzed and processed using Living Image software (Perkin Elmer), and the optical signal intensity in ROI (regions of interest) of each animal was calculated.

TMD8 cell proliferation = test: In vitro cell proliferation inhibitory activity test (CTG), TMD8; format: cell-based; settings: Homo sapiens, TMD8, 72 h, TMD8 cells
Description: Test Example 4: In Vitro Cell Proliferation Inhibitory Activity Test
Cells were cultured in 1640 medium, added with 10% inactivated FBS and 1% double antibiotics, and cultured at 37° C. and 5% CO2.
(1) Cells were routinely cultured until the cell density was 80%-90%, and the cells were harvested when their number reached the requirement.
(2) Cells were resuspended with corresponding culture medium, counted, and prepared into cell suspension at appropriate density.
(3) The cell suspension was added to a 96-well plate, 100 μL per well.
(4) Cells were cultured overnight in a 37° C., 5% CO2 incubator.
(1) The compounds to be tested were diluted with DMSO to make a stock solution with a final concentration of 20 mM for later use.
(2) The stock solution was diluted 10 times from 20 mM to 2 mM with DMSO, and then diluted 3 times from 2 mM to 9 concentrations.
(3) The blank control wells were cells plus 0.5% DMSO, as high-reading control wells.
(4) Wells with no cells and only medium were used as low-reading control wells.
4: Cell treatment with compound
(1) 24 h after the cells were plated, the compounds acted alone, and 99 μL of growth medium was added to each well, followed by 1 μL of the compound prepared in step 3. The plate was shaken gently to mix uniformly, and then placed in a 37° C., 5% CO2 incubator.
(2) The cell plate was placed in an incubator for 72 h.
5: Detection by CTG method
(1) The cell plate to be tested was placed at room temperature for 30 min, and 100 μL of medium was discarded from each well.
(2) 100 μL of CTG reagent (CelltiterGlo kit) was added to each well, placed on a fast shaker for 2 min, and stood at room temperature in the dark for 30 min.
(3) The chemiluminescent signal value was read with the Envision instrument.
IC50 was calculated by using GraphPad Prism 8 software. The IC50 (half inhibitory concentration) of the compound was derived using the following nonlinear fitting formula, and the results are shown in the following table:
Y=Bottom+(Top−Bottom)/(1+10^((Log IC50−X)×HillSlope))
X: log value of compound concentration, Y: inhibition rate (% inhibition)
Inhibition rate (% inhibition)=(reading of high-reading control well-reading of compound well)/(reading of high-reading control well-reading of low-reading control well)×100

[2] = Pharmacokinetic test, oral, SD rats; format: in vivo; settings: rat, plasma, oral 10 mg/kg
Description: Each test compound was administered orally (10 mg/kg, 3 rats in each group) to SD rats for pharmacokinetic study. […] Animals were fasted overnight before oral administration, and fed again after 4 h of administration. […] At each collection time point, 3 whole blood samples were collected at a the collection volume of about 0.2-0.3 mL. […] The collected plasma was stored at −20° C. before analysis. 20 μL of plasma sample was added into a 1.6 mL 96-well deep-well plate, added with 200 μL of working internal standard solution (the same volume of vehicle was added to the blank instead of internal standard), vortexed for 1 min, and centrifuged at 5800 rpm for 10 min. 100 μL of the supernatant was added to a 96-well injection plate for LC-MS/MS analysis.

| AUC(0-inf) [2] [ng·h/mL] | Cmax [2] [ng/mL] | half-life ([2]; read-out: T½ (converted)) [h] | SMILES | inhibitory effect against the tumor compared with Tirabrutinib [1] | fluorescence image of brain tumor (red area = tumor size) [1] | side effects [1] | IC50 (TMD8 cell proliferation) [nM] |
| --- | --- | --- | --- | --- | --- | --- | --- |
|  |  |  | Nc1nccn2c(C3CCC(CO)OC3)nc(-c3ccc(C(F)(F)c4ccccc4)cc3)c12 (single isomer, unassigned) [Example 111-P1] | significantly better inhibitory effect against the tumor than Tirabrutinib | very good inhibitory effect against the tumor, with almost no red area | no side effects had been found |  |
|  |  |  | Nc1nccn2c(C34CCC(CO)(CC3)OC4)nc(-c3ccc(C(F)(F)c4ccccc4)cc3)c12 [Example 125] | significantly better inhibitory effect against the tumor than Tirabrutinib | very good inhibitory effect against the tumor, with almost no red area | no side effects had been found | 92.4 |
| 17200 | 1550 | 2.78 | Nc1nccn2c(C34CCC(CO)(CC3)OC4)nc(-c3ccc(C(F)(F)c4ccccc4F)cc3)c12 [Example 145] |  |  |  |  |

— patent US20230257383A1, “COMPOUND SERVING AS BTK INHIBITOR, PREPARATION METHOD THEREFOR, AND USE THEREOF” (CHENGDU HYPERWAY PHARMACEUTICALS CO., LTD., priority 2020, published 2023)
